Measured values reported in ChEMBL document CHEMBL4334438, “Discovery of novel glycogen synthase kinase-3α inhibitors: Structure-based virtual screening, preliminary SAR and biological evaluation for treatment of acute myeloid leukemia” (Eur J Med Chem, 2019).

How the values were obtained:
[1] = biological target: Ephrin type-B receptor 4 (Homo sapiens) (UniProt P54760); test: Inhibition of recombinant human EphB4 (561 to end residues) assessed as residual activity at 1 uM using poly(Glu, Tyr) 4:1 as substrate at 40 mins in presence of [gamma-33ATP] by scintillation counting based radiometry assay relative to control
Homo sapiens [2] = species: Homo sapiens; test: Inhibition of recombinant human EphB2 A848S/K918E mutant (560 to end residues) assessed as residual activity at 1 uM using poly(Glu, Tyr) 4:1 as substrate at 40 mins in presence of [gamma-33ATP] by scintillation counting based radiometry assay relative to control
[3] = biological target: Serine/threonine-protein kinase STK11 (Homo sapiens) (UniProt Q15831); test: Inhibition of recombinant human LKB1 assessed as residual activity at 1 uM using LSNLYHQGKFLQTFCGSPLYRRR as substrate after 40 mins in presence of [gamma-33ATP] by scintillation counting based radiometry assay relative to control
[4] = biological target: cGMP-dependent protein kinase 2 (Homo sapiens) (UniProt Q13237); test: Inhibition of recombinant full-length human PRKG2 assessed as residual activity at 1 uM using KKLRRTLSFAEPG as substrate measured after 40 mins in presence of [gamma33P]ATP by scintillation counting method relative to control
[5] = biological target: Myotonin-protein kinase (Homo sapiens) (UniProt Q09013); test: Inhibition of recombinant human DMPK (1 to 549 residues) assessed as residual activity at 1 uM using KKSRGDYMTMQIG as substrate at 40 mins in presence of [gamma-33ATP] by scintillation counting based radiometry assay relative to control
Homo sapiens [6] = species: Homo sapiens; test: Inhibition of human activated Tec F514V mutant (174 to end residues) assessed as residual activity at 1 uM using EFPIYDFLPAKKK as substrate measured after 40 mins in presence of [gamma33P]ATP by scintillation counting method relative to control
[7] = system: Eukaryotic elongation factor 2 kinase (Homo sapiens), O00418 [H23R]; test: Inhibition of recombinant human eEF-2K H23R mutant (2 to end residues) assessed as residual activity at 1 uM using RKKFGESEKTKTKEFL as substrate at 40 mins in presence of [gamma-33ATP] by scintillation counting based radiometry assay relative to control
[8] = biological target: Serine/threonine-protein kinase Nek7 (Homo sapiens) (UniProt Q8TDX7); test: Inhibition of recombinant human NEK7 (2 to end residues) assessed as residual activity at 1 uM using FLAKSFGSPNRAYKK as substrate measured after 40 mins in presence of [gamma33P]ATP by scintillation counting method relative to control
[9] = system: Platelet-derived growth factor receptor alpha (Homo sapiens), P16234 [V561D]; test: Inhibition of human PDGFRalpha V561D mutant (550 to end residues) assessed as residual activity at 1 uM using GGMEDIYFEFMGGKKK as substrate measured after 40 mins in presence of [gamma33P]ATP by scintillation counting method relative to control
[10] = biological target: Serine/threonine-protein kinase DCLK3 (Homo sapiens) (UniProt Q9C098); test: Inhibition of recombinant human DCAMKL3 (345 to end residues) assessed as residual activity at 1 uM using KKLNRTLSFAEPG as substrate at 40 mins in presence of [gamma-33ATP] by scintillation counting based radiometry assay relative to control
[11] = biological target: Tribbles homolog 2 (Homo sapiens) (UniProt Q92519); test: Inhibition of recombinant full-length human TRB2 at 1 uM assessed as residual activity at 1 uM using RRRFRPASPLRGPPK as substrate measured after 120 mins in presence of [gamma33P]ATP by scintillation counting method relative to control
[12] = biological target: STE20-like serine/threonine-protein kinase (Homo sapiens) (UniProt Q9H2G2); test: Inhibition of human SLK (1 to 373 residues) assessed as residual activity at 1 uM using RLGRDKYKTLRQIRQ as substrate measured after 40 mins in presence of [gamma33P]ATP by scintillation counting method relative to control
[13] = biological target: Interleukin-1 receptor-associated kinase 1 (Homo sapiens) (UniProt P51617); test: Inhibition of human IRAK1 (194 to end residues) assessed as residual activity at 1 uM using myelin basic protein as substrate after 40 mins by [gamma-33ATP] radiometric assay relative to control
[14] = biological target: Cyclin-dependent kinase 1/cyclin B1 (Homo sapiens) (UniProt P06493+P14635); test: Inhibition of recombinant full length human CDK1/CyclinB assessed as residual activity at 1 uM using Histone H1 as substrate incubated for 40 mins in presence of [gamma-33ATP] by scintillation counting based radiometry assay relative to control; format: protein-complex assay
[15] = biological target: Casein kinase I isoform gamma-1 (Homo sapiens) (UniProt Q9HCP0); test: Inhibition of recombinant human CK1gamma1 (25 to 355 residues) assessed as residual activity at 1 uM using KRRRALS(p)VASLPGL as substrate measured after 40 mins in presence of [gamma33P]ATP by scintillation counting method
[16] = biological target: Myosin-IIIb (Homo sapiens) (UniProt Q8WXR4); test: Inhibition of recombinant human MYO3B (1 to 306 residues) assessed as residual activity at 1 uM using RLGRDKYKTLRQIRQ as substrate measured after 40 mins in presence of [gamma33P]ATP by scintillation counting method relative to control
[17] = biological target: Dual specificity tyrosine-phosphorylation-regulated kinase 3 (Homo sapiens) (UniProt O43781); test: Inhibition of recombinant human DYRK3 assessed as residual activity at 1 uM using RRRFRPASPLRGPPK as substrate at 40 mins in presence of [gamma-33ATP] by scintillation counting based radiometry assay relative to control
Homo sapiens [18] = species: Homo sapiens; test: Inhibition of recombinant human Plk4 S34T mutant (1 to 273 residues) assessed as residual activity at 1 uM using casein as substrate measured after 40 mins in presence of [gamma33P]ATP by scintillation counting method relative to control
[19] = biological target: Serine/threonine-protein kinase WNK2 (Homo sapiens) (UniProt Q9Y3S1); test: Inhibition of human WNK2 (166 to 489 residues) assessed as residual activity at 1 uM using myelin basic protein as substrate measured after 40 mins in presence of [gamma33P]ATP by scintillation counting method relative to control
[20] = biological target: Cytoplasmic tyrosine-protein kinase BMX (Homo sapiens) (UniProt P51813); test: Inhibition of recombinant full length human BMX assessed as residual activity at 1 uM using poly(Glu, Tyr) 4:1 as substrate incubated for 40 mins in presence of [gamma-33ATP] by scintillation counting based radiometry assay relative to control
[21] = biological target: Serine/threonine-protein kinase PAK 1 (Homo sapiens) (UniProt Q13153); test: Inhibition of recombinant human PAK1 (150 to end residues) assessed as residual activity at 1 uM using RRRLSFAEPG as substrate measured after 40 mins in presence of [gamma33P]ATP by scintillation counting method relative to control

Cyclin-dependent kinase 1/cyclin B1 (Homo sapiens), sequence (P06493 whole entry, looked up, the tested form may be a part, canonical isoform): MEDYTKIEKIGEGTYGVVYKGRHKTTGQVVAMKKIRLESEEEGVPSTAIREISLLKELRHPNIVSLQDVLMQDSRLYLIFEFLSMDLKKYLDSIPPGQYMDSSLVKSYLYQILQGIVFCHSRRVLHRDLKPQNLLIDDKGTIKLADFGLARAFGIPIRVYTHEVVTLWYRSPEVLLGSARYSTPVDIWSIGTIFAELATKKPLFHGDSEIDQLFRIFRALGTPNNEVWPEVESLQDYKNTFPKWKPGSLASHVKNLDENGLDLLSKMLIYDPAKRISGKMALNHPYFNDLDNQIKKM
Cyclin-dependent kinase 1/cyclin B1 (Homo sapiens), sequence (P14635 whole entry, looked up, the tested form may be a part, canonical isoform): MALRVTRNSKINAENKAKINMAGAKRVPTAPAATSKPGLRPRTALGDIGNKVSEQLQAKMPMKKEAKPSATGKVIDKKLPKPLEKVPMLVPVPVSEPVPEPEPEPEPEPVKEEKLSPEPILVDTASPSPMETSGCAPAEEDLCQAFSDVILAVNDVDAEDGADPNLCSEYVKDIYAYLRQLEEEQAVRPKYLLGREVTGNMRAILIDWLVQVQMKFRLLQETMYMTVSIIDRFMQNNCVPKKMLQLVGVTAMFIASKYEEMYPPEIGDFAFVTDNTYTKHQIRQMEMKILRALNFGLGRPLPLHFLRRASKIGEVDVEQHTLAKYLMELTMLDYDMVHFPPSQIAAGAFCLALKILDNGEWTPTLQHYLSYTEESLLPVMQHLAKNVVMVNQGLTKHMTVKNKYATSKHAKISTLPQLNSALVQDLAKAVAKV
Serine/threonine-protein kinase STK11 (Homo sapiens), sequence (Q15831 whole entry): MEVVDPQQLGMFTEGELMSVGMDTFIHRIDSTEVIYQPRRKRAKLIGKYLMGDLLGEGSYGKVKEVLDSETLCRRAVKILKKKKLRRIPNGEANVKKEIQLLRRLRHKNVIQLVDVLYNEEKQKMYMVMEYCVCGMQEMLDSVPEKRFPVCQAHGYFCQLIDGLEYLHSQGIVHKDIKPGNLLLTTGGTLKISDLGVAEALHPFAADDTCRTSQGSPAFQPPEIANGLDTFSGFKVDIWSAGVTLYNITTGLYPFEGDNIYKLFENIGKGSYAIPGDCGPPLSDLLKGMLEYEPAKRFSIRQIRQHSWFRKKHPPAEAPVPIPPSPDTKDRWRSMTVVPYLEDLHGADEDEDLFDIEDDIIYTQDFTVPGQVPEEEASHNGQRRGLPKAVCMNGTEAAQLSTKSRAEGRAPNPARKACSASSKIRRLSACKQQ
Myotonin-protein kinase (Homo sapiens), sequence (Q09013 whole entry, the tested form may be a part): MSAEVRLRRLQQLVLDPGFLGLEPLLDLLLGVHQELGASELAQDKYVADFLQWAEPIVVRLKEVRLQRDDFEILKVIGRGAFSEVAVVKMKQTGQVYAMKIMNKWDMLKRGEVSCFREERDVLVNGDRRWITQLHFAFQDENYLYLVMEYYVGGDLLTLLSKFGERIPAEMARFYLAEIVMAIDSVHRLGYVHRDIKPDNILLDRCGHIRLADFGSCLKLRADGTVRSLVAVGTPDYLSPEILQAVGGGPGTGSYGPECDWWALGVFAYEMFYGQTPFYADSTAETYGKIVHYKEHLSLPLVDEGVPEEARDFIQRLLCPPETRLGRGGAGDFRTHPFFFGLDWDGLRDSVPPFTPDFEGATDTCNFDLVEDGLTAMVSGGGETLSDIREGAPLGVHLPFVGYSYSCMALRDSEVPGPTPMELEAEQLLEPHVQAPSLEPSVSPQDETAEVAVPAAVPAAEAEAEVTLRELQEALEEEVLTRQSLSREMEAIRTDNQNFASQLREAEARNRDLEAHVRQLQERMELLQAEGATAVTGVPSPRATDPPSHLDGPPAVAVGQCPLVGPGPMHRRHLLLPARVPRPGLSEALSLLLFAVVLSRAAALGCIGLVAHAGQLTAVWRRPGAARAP
Casein kinase I isoform gamma-1 (Homo sapiens), sequence (Q9HCP0 whole entry, looked up, the tested form may be a part, canonical isoform): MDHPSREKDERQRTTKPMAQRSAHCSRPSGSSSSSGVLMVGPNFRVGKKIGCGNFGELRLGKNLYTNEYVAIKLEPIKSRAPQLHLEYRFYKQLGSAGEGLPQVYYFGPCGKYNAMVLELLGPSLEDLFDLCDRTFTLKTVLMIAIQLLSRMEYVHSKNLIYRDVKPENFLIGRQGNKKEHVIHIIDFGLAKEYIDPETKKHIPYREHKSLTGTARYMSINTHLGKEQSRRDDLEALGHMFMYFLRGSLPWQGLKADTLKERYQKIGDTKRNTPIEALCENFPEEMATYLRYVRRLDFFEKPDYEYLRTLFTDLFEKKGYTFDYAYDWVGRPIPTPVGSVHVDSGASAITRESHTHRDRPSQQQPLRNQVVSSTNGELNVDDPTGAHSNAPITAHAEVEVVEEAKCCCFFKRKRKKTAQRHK
Serine/threonine-protein kinase WNK2 (Homo sapiens), sequence (Q9Y3S1 whole entry, the tested form may be a part): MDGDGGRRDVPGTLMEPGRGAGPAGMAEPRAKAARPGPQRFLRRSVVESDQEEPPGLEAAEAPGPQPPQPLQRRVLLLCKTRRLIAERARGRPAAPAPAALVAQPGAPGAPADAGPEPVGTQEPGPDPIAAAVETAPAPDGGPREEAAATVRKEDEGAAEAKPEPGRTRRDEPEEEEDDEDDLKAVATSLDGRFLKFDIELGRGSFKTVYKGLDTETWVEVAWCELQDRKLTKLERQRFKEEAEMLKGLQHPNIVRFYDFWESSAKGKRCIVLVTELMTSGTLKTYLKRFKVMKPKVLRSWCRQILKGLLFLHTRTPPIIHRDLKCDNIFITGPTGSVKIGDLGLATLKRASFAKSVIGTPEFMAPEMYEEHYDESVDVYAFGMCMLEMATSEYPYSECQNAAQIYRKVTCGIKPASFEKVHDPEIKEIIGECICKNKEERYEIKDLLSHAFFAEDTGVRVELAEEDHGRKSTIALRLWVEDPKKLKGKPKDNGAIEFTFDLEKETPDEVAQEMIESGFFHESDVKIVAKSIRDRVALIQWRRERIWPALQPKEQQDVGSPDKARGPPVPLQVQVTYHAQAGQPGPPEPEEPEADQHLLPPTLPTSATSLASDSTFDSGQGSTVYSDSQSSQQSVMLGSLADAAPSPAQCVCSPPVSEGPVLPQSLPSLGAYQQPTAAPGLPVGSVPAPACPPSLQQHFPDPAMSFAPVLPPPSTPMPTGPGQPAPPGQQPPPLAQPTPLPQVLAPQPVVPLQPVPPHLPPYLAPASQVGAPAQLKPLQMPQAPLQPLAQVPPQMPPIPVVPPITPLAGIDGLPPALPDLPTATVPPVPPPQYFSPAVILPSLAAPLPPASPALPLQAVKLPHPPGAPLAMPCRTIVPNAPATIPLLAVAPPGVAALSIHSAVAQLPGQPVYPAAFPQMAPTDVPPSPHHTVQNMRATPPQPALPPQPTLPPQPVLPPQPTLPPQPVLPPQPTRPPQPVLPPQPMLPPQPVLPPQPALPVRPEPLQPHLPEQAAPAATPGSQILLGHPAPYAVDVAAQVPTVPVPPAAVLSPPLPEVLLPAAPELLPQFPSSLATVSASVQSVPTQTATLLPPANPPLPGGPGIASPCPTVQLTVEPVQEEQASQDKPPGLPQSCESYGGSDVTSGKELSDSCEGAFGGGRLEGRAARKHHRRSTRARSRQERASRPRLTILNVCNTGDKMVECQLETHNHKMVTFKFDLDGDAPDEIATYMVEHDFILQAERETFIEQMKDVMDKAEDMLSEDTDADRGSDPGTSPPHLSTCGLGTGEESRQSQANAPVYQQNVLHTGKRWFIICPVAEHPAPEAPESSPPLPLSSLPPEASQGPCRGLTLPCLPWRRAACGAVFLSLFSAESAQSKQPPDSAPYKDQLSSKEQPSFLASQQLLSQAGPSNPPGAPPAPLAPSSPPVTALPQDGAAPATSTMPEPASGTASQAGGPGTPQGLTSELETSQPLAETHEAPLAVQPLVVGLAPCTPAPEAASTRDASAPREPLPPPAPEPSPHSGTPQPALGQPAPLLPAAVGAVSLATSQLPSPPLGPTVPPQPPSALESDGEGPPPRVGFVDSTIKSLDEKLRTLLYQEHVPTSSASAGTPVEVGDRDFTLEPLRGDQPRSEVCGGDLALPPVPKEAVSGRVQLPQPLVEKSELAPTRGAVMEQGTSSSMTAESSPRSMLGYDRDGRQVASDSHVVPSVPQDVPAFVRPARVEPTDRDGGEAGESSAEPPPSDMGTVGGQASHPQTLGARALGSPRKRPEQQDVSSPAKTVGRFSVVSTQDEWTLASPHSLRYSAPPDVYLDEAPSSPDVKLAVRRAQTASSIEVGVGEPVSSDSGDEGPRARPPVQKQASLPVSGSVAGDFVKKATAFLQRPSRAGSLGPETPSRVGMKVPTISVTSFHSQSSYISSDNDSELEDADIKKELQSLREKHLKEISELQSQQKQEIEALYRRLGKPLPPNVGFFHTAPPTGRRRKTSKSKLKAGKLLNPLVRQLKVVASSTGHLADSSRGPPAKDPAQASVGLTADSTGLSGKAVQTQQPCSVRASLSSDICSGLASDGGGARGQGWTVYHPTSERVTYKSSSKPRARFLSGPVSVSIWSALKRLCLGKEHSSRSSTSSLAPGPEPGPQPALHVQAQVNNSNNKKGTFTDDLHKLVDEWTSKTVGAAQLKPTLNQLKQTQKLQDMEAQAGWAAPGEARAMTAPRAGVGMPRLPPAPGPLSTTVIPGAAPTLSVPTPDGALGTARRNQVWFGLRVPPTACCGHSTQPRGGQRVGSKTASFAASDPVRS
Tribbles homolog 2 (Homo sapiens), sequence (Q92519 whole entry, the tested form may be a part): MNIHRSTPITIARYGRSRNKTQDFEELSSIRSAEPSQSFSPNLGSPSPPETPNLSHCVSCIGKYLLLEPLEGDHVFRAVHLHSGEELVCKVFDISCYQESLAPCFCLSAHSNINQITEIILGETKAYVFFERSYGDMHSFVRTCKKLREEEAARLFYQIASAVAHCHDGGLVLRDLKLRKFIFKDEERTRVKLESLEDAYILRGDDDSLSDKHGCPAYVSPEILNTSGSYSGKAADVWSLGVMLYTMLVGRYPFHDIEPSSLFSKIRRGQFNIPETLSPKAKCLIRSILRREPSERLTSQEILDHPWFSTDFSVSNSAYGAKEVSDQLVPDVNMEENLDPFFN

| SMILES | Activity [1] | Activity (Homo sapiens [2]) | Activity [3] | Activity [4] | Activity [5] | Activity (Homo sapiens [6]) | Activity [7] | Activity [8] | Activity [9] | Activity [10] | Activity [11] | Activity [12] | Activity [13] | Activity [14] | Activity [15] | Activity [16] | Activity [17] | Activity (Homo sapiens [18]) | Activity [19] | Activity [20] | also measured |
| --- | --- | --- | --- | --- | --- | --- | --- | --- | --- | --- | --- | --- | --- | --- | --- | --- | --- | --- | --- | --- | --- |
| N=C1NC(=O)/C(=C\c2ccc(-c3cccc([N+](=O)[O-])c3)o2)S1 | 93% | 96% | 37% | 51% | 93% | 96% | 95% | 107% | 91% | 92% | 40% | 95% | 100% | 73% | 101% | 98% | 76% | 83% | 88% | 101% | Activity [21]: 104% |
| C=CCOC(=O)c1cc(-c2ccc(/C=C3/NC(=S)NC3=O)o2)ccc1Cl | 94% | 140% | 93% | 94% | 76% | 99% | 98% | 98% | 110% | 103% | 49% | 87% | 90% | 65% | 101% | 105% | 104% | 91% | 85% | 103% | Activity [21]: 100% |
